Data as given in patent publication US11014917B2, “5-fluoro-c-(aryl or heterocyclyl)-glycoside derivatives useful as dual SGLT1 / SGLT2 modulators” (Janssen Pharmaceutica NV, priority 2017, dated 2021).

How the values were obtained:
[1] = molecular target: T1, human SGLT1 (Homo sapiens, UniProt P13866); assay: SGLT1 assay: Na-dependent 14C-AMG uptake in CHO-K1 cells stably expressing human SGLT1; assay type: cell-based; conditions: for IC50: average if tested more than once
T1 construct: expressed in transfected cells
T1 sequence (P13866 1-664): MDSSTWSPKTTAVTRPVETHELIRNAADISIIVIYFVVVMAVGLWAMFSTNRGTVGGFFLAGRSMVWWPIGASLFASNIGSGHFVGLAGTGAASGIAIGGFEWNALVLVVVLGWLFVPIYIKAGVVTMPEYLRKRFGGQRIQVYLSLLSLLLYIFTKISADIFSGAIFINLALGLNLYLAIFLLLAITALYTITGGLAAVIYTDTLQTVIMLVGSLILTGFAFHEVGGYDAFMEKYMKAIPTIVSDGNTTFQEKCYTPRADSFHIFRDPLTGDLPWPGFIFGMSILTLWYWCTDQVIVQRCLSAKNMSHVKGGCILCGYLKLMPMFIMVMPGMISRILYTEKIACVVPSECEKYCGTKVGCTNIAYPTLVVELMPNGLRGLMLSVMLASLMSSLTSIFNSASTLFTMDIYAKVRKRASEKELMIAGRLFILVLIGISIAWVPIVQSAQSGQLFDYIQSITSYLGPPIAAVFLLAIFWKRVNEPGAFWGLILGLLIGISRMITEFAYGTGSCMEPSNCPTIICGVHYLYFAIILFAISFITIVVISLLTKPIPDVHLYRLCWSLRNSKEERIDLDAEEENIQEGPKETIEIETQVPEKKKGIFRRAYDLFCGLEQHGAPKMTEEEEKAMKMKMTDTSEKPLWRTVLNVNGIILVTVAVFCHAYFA
Summary of the method: (§1)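 Stable CHO-K1 lines were pretreated 24 h with 10 mM Na-butyrate, then compound (0.001–10 μM) for 10 min in Na+ buffer (137 mM NaCl, pH 7.4). Uptake of 14C-AMG (500 μM final, 0.07 μCi/well) over 2 h at 37° C measured by scintillation; %-inhibition or IC50.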

[2] = molecular target: T2, human SGLT2 (Homo sapiens, UniProt P31639); assay: SGLT2 assay: Na-dependent 14C-AMG uptake in CHO-K1 cells stably expressing human SGLT2; assay type: cell-based; conditions: for IC50: average if tested more than once
T2 construct: expressed in transfected cells
T2 sequence (P31639 1-672): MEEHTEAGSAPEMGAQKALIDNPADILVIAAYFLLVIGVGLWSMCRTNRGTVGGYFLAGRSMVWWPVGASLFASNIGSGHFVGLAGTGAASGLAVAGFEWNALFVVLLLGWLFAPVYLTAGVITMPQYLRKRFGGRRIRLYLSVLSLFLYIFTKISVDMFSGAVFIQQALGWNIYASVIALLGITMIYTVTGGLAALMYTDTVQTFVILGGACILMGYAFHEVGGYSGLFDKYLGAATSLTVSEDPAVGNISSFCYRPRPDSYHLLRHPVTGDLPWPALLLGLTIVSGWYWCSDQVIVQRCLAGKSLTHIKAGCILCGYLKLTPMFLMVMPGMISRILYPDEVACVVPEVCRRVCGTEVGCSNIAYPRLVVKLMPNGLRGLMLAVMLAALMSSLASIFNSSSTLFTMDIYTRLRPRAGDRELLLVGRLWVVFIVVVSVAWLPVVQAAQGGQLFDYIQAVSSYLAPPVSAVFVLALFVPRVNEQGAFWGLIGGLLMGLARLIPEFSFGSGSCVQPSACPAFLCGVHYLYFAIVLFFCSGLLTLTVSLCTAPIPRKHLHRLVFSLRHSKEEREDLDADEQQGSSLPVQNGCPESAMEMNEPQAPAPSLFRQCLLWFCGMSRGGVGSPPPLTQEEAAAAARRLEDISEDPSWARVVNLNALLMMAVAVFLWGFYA
Summary of the method: as §1

IC50 [1] [nM]	IC50 [2] [nM]	SGLT1 %-inhibition ([1]; @ 0.3 μM) [% @ 0.3 μM]	SGLT2 %-inhibition ([2]; @ 0.3 μM) [% @ 0.3 μM]	SMILES
60	15			[2H]C1([2H])Oc2ccc(Cc3cc([C@@H]4O[C@H](CO)[C@@H](F)[C@H](O)[C@H]4O)c4c(c3CC)CCO4)cc2OC1([2H])[2H] [Compound 179]
61	25			CCc1c(Cc2ccc3c(c2)OCCO3)cc([C@@H]2O[C@H](CO)[C@@H](F)[C@H](O)[C@H]2O)c2c1CCO2 [Compound 180]
		67.0	85.0	[2H]C1([2H])Oc2ccc(Cc3cc([C@@H]4O[C@H](CO)[C@@H](F)[C@H](O)[C@H]4O)cc4c3CCO4)cc2OC1([2H])[2H] [Compound 181]
138	11			[2H]C([2H])([2H])Oc1cc(CC)c(Cc2ccc3c(c2)OCCO3)cc1[C@@H]1O[C@H](CO)[C@@H](F)[C@H](O)[C@H]1O [Compound 182]
